Assay results published in the NIST ThermoML archive (doi:10.1016/j.jct.2018.03.013).

Assay: xn = mol fraction of the nth substance listed
Conditions: 100 kPa, Liquid; for speed of sound: Frequency=3 MHz, Linear variable-path acoustic interferometer; for mass density: Pycnometric method

C=C(C)C(=O)OCC [ethyl 2-methylpropenoate] + CC#N
Conditions	mass density [kg/m3]	speed of sound [m/s]
293.15 K, x2 = 0	912.3	1196.8
293.15 K, x2 = 0.0556	909.47	1200.9
293.15 K, x2 = 0.1112	906.38	1205
293.15 K, x2 = 0.1631	903.24	1208.8
293.15 K, x2 = 0.2147	899.86	1212.6
293.15 K, x2 = 0.2795	895.21	1217.4
293.15 K, x2 = 0.3446	890.04	1222.2
293.15 K, x2 = 0.4132	883.98	1227.4
293.15 K, x2 = 0.4819	877.18	1232.8
293.15 K, x2 = 0.5597	868.44	1239.5
293.15 K, x2 = 0.6375	858.38	1246.9
293.15 K, x2 = 0.7251	845.11	1256.4
293.15 K, x2 = 0.8113	829.5	1267.7
293.15 K, x2 = 0.9014	809.62	1282.6
293.15 K, x2 = 0.9542	795.78	1293.4
298.15 K, x2 = 0	907.18	1176.9
298.15 K, x2 = 0.0556	904.36	1181
298.15 K, x2 = 0.1112	901.28	1185.1
298.15 K, x2 = 0.1631	898.14	1188.8
298.15 K, x2 = 0.2147	894.76	1192.5
298.15 K, x2 = 0.2795	890.11	1197.2
298.15 K, x2 = 0.3446	884.94	1201.9
298.15 K, x2 = 0.4132	878.87	1207
298.15 K, x2 = 0.4819	872.05	1212.3
298.15 K, x2 = 0.5597	863.29	1218.8
298.15 K, x2 = 0.6375	853.22	1226
298.15 K, x2 = 0.7251	839.92	1235.4
298.15 K, x2 = 0.8113	824.27	1246.5
298.15 K, x2 = 0.9014	804.36	1261.1
298.15 K, x2 = 0.9542	790.5	1271.8
303.15 K, x2 = 0	902.06	1157.6
303.15 K, x2 = 0.0556	899.25	1161.8
303.15 K, x2 = 0.1112	896.18	1165.9
303.15 K, x2 = 0.1631	893.05	1169.6
303.15 K, x2 = 0.2147	889.66	1173.3
303.15 K, x2 = 0.2795	885.01	1177.9
303.15 K, x2 = 0.3446	879.82	1182.6
303.15 K, x2 = 0.4132	873.74	1187.7
303.15 K, x2 = 0.4819	866.92	1193
303.15 K, x2 = 0.5597	858.14	1199.5
303.15 K, x2 = 0.6375	848.05	1206.7
303.15 K, x2 = 0.7251	834.72	1216.2
303.15 K, x2 = 0.8113	819.05	1227.4
303.15 K, x2 = 0.9014	799.1	1242.2
303.15 K, x2 = 0.9542	785.22	1252.9
308.15 K, x2 = 0	896.94	1139.4
308.15 K, x2 = 0.0556	894.14	1143.6
308.15 K, x2 = 0.1112	891.07	1147.7
308.15 K, x2 = 0.1631	887.95	1151.4
308.15 K, x2 = 0.2147	884.57	1155
308.15 K, x2 = 0.2795	879.91	1159.6
308.15 K, x2 = 0.3446	874.71	1164.3
308.15 K, x2 = 0.4132	868.61	1169.3
308.15 K, x2 = 0.4819	861.78	1174.6
308.15 K, x2 = 0.5597	852.99	1181
308.15 K, x2 = 0.6375	842.87	1188.1
308.15 K, x2 = 0.7251	829.52	1197.5
308.15 K, x2 = 0.8113	813.82	1208.6
308.15 K, x2 = 0.9014	793.83	1223.4
308.15 K, x2 = 0.9542	779.93	1234.1
313.15 K, x2 = 0	891.83	1121.5
313.15 K, x2 = 0.0556	889.04	1125.6
313.15 K, x2 = 0.1112	885.98	1129.8
313.15 K, x2 = 0.1631	882.85	1133.5
313.15 K, x2 = 0.2147	879.47	1137.1
313.15 K, x2 = 0.2795	874.81	1141.7
313.15 K, x2 = 0.3446	869.6	1146.3
313.15 K, x2 = 0.4132	863.49	1151.3
313.15 K, x2 = 0.4819	856.64	1156.5
313.15 K, x2 = 0.5597	847.83	1162.9
313.15 K, x2 = 0.6375	837.7	1169.9
313.15 K, x2 = 0.7251	824.32	1179.2
313.15 K, x2 = 0.8113	808.59	1190.3
313.15 K, x2 = 0.9014	788.57	1205
313.15 K, x2 = 0.9542	774.64	1215.7
318.15 K, x2 = 0	886.71	1104.6
318.15 K, x2 = 0.0556	883.94	1108.7
318.15 K, x2 = 0.1112	880.88	1112.8
318.15 K, x2 = 0.1631	877.75	1116.5
318.15 K, x2 = 0.2147	874.37	1120.1
318.15 K, x2 = 0.2795	869.7	1124.6
318.15 K, x2 = 0.3446	864.49	1129.2
318.15 K, x2 = 0.4132	858.37	1134.1
318.15 K, x2 = 0.4819	851.5	1139.2
318.15 K, x2 = 0.5597	842.68	1145.4
318.15 K, x2 = 0.6375	832.52	1152.3
318.15 K, x2 = 0.7251	819.12	1161.4
318.15 K, x2 = 0.8113	803.35	1172.3
318.15 K, x2 = 0.9014	783.3	1186.7
318.15 K, x2 = 0.9542	769.35	1197.3

C=C(C)C(=O)OCCCC [butyl 2-methyl-2-propenoate] + CC#N
Conditions	mass density [kg/m3]	speed of sound [m/s]
293.15 K, x2 = 0	895.19	1241.7
293.15 K, x2 = 0.0681	892.7	1244.4
293.15 K, x2 = 0.1359	889.93	1247.2
293.15 K, x2 = 0.1976	887.12	1249.7
293.15 K, x2 = 0.2728	883.27	1252.7
293.15 K, x2 = 0.3442	879.11	1255.5
293.15 K, x2 = 0.4143	874.45	1258.2
293.15 K, x2 = 0.4658	870.61	1260.3
293.15 K, x2 = 0.5243	865.72	1262.7
293.15 K, x2 = 0.5649	861.96	1264.5
293.15 K, x2 = 0.639	854.15	1268.1
293.15 K, x2 = 0.7112	845.09	1272.2
293.15 K, x2 = 0.7836	834.14	1277.3
293.15 K, x2 = 0.8558	820.72	1283.7
293.15 K, x2 = 0.928	803.86	1292.4
298.15 K, x2 = 0	890.48	1222.1
298.15 K, x2 = 0.0681	887.98	1224.8
298.15 K, x2 = 0.1359	885.2	1227.6
298.15 K, x2 = 0.1976	882.38	1230
298.15 K, x2 = 0.2728	878.51	1232.9
298.15 K, x2 = 0.3442	874.33	1235.5
298.15 K, x2 = 0.4143	869.65	1238.2
298.15 K, x2 = 0.4658	865.78	1240.2
298.15 K, x2 = 0.5243	860.86	1242.5
298.15 K, x2 = 0.5649	857.08	1244.2
298.15 K, x2 = 0.639	849.22	1247.7
298.15 K, x2 = 0.7112	840.11	1251.6
298.15 K, x2 = 0.7836	829.09	1256.4
298.15 K, x2 = 0.8558	815.6	1262.6
298.15 K, x2 = 0.928	798.66	1271
303.15 K, x2 = 0	885.78	1202.4
303.15 K, x2 = 0.0681	883.27	1205.3
303.15 K, x2 = 0.1359	880.47	1208.1
303.15 K, x2 = 0.1976	877.64	1210.5
303.15 K, x2 = 0.2728	873.75	1213.3
303.15 K, x2 = 0.3442	869.55	1216
303.15 K, x2 = 0.4143	864.84	1218.7
303.15 K, x2 = 0.4658	860.95	1220.7
303.15 K, x2 = 0.5243	856.01	1223.1
303.15 K, x2 = 0.5649	852.2	1224.8
303.15 K, x2 = 0.639	844.3	1228.3
303.15 K, x2 = 0.7112	835.14	1232.3
303.15 K, x2 = 0.7836	824.06	1237.2
303.15 K, x2 = 0.8558	810.49	1243.5
303.15 K, x2 = 0.928	793.46	1252
308.15 K, x2 = 0	881.07	1183
308.15 K, x2 = 0.0681	878.55	1185.9
308.15 K, x2 = 0.1359	875.74	1188.7
308.15 K, x2 = 0.1976	872.89	1191.2
308.15 K, x2 = 0.2728	868.98	1194.1
308.15 K, x2 = 0.3442	864.75	1196.8
308.15 K, x2 = 0.4143	860.01	1199.4
308.15 K, x2 = 0.4658	856.1	1201.4
308.15 K, x2 = 0.5243	851.13	1203.8
308.15 K, x2 = 0.5649	847.3	1205.6
308.15 K, x2 = 0.639	839.36	1209.1
308.15 K, x2 = 0.7112	830.15	1213.1
308.15 K, x2 = 0.7836	819.01	1218.1
308.15 K, x2 = 0.8558	805.37	1224.4
308.15 K, x2 = 0.928	788.25	1233
313.15 K, x2 = 0	876.35	1163.8
313.15 K, x2 = 0.0681	873.82	1166.7
313.15 K, x2 = 0.1359	871	1169.6
313.15 K, x2 = 0.1976	868.13	1172.1
313.15 K, x2 = 0.2728	864.2	1175
313.15 K, x2 = 0.3442	859.95	1177.7
313.15 K, x2 = 0.4143	855.18	1180.4
313.15 K, x2 = 0.4658	851.24	1182.4
313.15 K, x2 = 0.5243	846.24	1184.8
313.15 K, x2 = 0.5649	842.39	1186.6
313.15 K, x2 = 0.639	834.41	1190.2
313.15 K, x2 = 0.7112	825.14	1194.2
313.15 K, x2 = 0.7836	813.95	1199.3
313.15 K, x2 = 0.8558	800.24	1205.7
313.15 K, x2 = 0.928	783.04	1214.3
318.15 K, x2 = 0	871.64	1145.7
318.15 K, x2 = 0.0681	869.11	1148.6
318.15 K, x2 = 0.1359	866.27	1151.5
318.15 K, x2 = 0.1976	863.39	1154
318.15 K, x2 = 0.2728	859.43	1156.9
318.15 K, x2 = 0.3442	855.15	1159.6
318.15 K, x2 = 0.4143	850.35	1162.3
318.15 K, x2 = 0.4658	846.39	1164.3
318.15 K, x2 = 0.5243	841.36	1166.7
318.15 K, x2 = 0.5649	837.49	1168.4
318.15 K, x2 = 0.639	829.46	1171.9
318.15 K, x2 = 0.7112	820.14	1175.9
318.15 K, x2 = 0.7836	808.89	1180.9
318.15 K, x2 = 0.8558	795.11	1187.3
318.15 K, x2 = 0.928	777.83	1195.8
